Data from PubChem BioAssay AID686966 (The Scripps Research Institute Molecular Screening Center, 2013).
pIC50: −log10 of the molar value. The source made the active and inactive calls. How the calls were made is not given here.

Target: Tyrosine-protein kinase ABL1 (Homo sapiens) + Ras and Rab interactor 1 (Homo sapiens) (UniProt P00519+Q13671)
Assay: inhibitors of Rin1-Abl protein interaction, late-stage follow-up, biochemical, TR-FRET, round 2 (AID 686966)
Settings: TR-FRET Rin1-Abl binding

Chain of Tyrosine-protein kinase ABL1 (Homo sapiens) + Ras and Rab interactor 1 (Homo sapiens) (P00519 whole entry, looked up): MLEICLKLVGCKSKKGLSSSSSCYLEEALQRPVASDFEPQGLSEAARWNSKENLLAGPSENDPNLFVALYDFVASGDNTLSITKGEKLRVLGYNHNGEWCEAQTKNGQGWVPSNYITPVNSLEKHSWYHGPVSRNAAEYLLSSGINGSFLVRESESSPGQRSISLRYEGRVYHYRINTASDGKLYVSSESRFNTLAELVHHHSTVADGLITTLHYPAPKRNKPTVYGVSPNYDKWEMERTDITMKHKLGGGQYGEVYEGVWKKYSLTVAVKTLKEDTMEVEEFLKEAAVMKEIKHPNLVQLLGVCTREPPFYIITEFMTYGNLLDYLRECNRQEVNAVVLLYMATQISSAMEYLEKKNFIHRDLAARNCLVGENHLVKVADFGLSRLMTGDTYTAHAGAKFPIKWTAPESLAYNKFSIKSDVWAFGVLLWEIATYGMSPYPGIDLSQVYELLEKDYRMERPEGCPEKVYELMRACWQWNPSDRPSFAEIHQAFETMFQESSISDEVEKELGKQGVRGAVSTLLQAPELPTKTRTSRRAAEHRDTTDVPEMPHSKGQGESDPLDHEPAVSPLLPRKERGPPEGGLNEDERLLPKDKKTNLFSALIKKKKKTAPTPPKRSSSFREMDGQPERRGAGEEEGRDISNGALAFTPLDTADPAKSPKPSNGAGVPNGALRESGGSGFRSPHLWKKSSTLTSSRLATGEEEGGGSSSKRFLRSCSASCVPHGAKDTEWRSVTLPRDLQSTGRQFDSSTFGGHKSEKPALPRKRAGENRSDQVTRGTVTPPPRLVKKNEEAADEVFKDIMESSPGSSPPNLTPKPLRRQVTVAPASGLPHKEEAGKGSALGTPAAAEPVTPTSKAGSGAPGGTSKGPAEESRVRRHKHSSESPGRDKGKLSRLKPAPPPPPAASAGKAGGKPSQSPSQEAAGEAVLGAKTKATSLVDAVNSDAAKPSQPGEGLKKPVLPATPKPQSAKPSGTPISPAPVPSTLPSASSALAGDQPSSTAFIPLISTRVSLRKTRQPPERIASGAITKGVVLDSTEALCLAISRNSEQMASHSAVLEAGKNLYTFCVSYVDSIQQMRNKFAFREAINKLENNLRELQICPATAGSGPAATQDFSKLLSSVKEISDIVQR
Chain of Tyrosine-protein kinase ABL1 (Homo sapiens) + Ras and Rab interactor 1 (Homo sapiens) (Q13671 whole entry, looked up): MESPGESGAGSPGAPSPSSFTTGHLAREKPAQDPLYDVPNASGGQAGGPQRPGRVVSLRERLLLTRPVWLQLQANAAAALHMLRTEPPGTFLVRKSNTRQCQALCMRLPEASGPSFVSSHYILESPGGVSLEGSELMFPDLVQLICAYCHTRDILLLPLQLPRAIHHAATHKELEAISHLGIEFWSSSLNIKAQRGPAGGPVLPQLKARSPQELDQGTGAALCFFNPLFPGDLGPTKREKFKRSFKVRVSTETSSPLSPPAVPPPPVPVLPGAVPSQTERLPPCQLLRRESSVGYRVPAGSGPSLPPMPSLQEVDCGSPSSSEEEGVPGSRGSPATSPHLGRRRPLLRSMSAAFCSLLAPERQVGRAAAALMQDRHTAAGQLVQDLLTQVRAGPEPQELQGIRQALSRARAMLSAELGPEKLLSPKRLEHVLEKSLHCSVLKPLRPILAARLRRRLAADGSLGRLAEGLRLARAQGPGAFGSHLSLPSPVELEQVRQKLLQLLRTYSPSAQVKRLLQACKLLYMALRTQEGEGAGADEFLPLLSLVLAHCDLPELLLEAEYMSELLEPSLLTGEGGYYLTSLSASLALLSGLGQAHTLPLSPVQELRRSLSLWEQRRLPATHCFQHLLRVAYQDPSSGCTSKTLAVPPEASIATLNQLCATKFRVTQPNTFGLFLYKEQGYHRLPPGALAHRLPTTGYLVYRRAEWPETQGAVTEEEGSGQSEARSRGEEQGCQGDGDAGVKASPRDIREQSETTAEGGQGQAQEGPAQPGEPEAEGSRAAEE

Compound	IC50	pIC50
Cn1ccc(OCc2ccc(F)cc2)cc1=O	inactive	–
COc1ccc(COc2cc[nH]c(=O)c2)cc1	–	7.40
O=c1cc(OCc2ccc(F)cc2)cc[nH]1	–	7.71
COc1ccc(COc2ccnc(OC)c2)cc1	> 73500 nM (inactive)	–
COc1ccc(COc2ccn(C)c(=O)c2)cc1	> 73500 nM (inactive)	–
O=c1cc(OCc2ccccc2)cc[nH]1	–	7.64
Nc1cc(OCc2ccccc2)ccn1	> 73500 nM (inactive)	–
COc1cc(OCc2ccc(F)cc2)ccn1	inactive	–
Cn1ccc(OCc2ccccc2)cc1=O	> 73500 nM (inactive)	–
COc1cc(OCc2ccccc2)ccn1	> 73500 nM (inactive)	–
